Test results: patent publication US5252598A, “Labdane derivatives, a process for their preparation, and their use as medicaments” (Hoechst Aktiengesellschaft, priority 1987, dated 1993)
Converted amounts (≈) assume the structure as drawn. Where a name gives a salt, the structure may show the parent alone.

What was measured:
Guinea pig atrium = assay: Positive inotropic activity (contractility of isolated guinea pig atrium); format: cell-based; settings: isolated left and right atria, Ringer's solution, 32° C., contractility recorded 7 to 10 minutes; for EC50: Cavia porcellus
Procedure: Guineapigs of both sexes and weighing 400 g were sacrificed, and the heart was removed and placed in Ringer's solution at room temperature. Both the left and the right atria were then isolated and fixed in an organ holder, and the preparation was placed in an organ bath containing Ringer's solution and maintained at a temperature of 32° C. Carbogen (95% O2 and 5% CO2) was then bubbled through the organ bath. The compound to be tested is dissolved directly in water together with a stoichiometric amount of 0.1N HCL or a salt thereof to give a solution of known concentration and the latter is added to the bath. The contractility of the atrium is recorded for 7 to 10 minutes on a Nihon Kohden 4-channel pen recorder with an isometric strain gage. The activity is expressed on the basis of the resulting data as the EC50.

conscious rabbits = assay: Reduction in intraocular pressure in conscious rabbits; format: in vivo; settings: rabbit, instilled into one eye
Procedure: For this experiment rabbits of both sexes and weighing 2 to 3 kg are used. The intraocular pressure (IOP) is measured with a Schioetz tonometer after corneal anesthesia with 2% strength novocaine solution. […] […] The IOP is measured at defined time intervals, i.e. after 0.5, 1, 2, 3, 4 and 5 hours. The percentage reduction in the IOP is calculated using the baseline value.

cats = assay: Antihypertensive effect: blood pressure in anesthetized cats; format: in vivo; settings: anesthetized cat, i.v., 1 mg/kg
Procedure: Cats of both sexes and weighing 3 to 4 kg were anesthetized with ether and maintained under chloralose anesthesia (70 mg/kg i.v.). Cannulas were placed in the femoral artery and in the femoral vein to record the blood pressure and to administer the medicament, respectively. The blood pressure in the femoral artery was recorded using a Statham P 23 Db pressure transducer on a Nihon-Kohden pen recorder for physiological purposes. The compound to be tested was dissolved, if a salt, in distilled water, otherwise in propylene glycol and administered intravenously. The fall in blood pressure and the duration of the hypotensive activity were determined.

| Structure (SMILES) | EC50 (Guinea pig atrium) | other results |
| --- | --- | --- |
| C=C[C@@]1(C)CC(=O)[C@@]2(O)[C@](C)(O1)[C@@H](OC(=O)COC(=O)CCN1CCN(C)CC1)C=C1C(C)(C)CC[C@H](O)[C@@]12C | 1 µg/mL (≈ 1.78 µM) | – |
| C=C[C@@]1(C)CC(=O)[C@@]2(O)[C@](C)(O1)[C@@H](OC(=O)COC(=O)CN(CC)CC)C=C1C(C)(C)CC[C@H](O)[C@@]12C [COCH2 OCOCH2 NEt2, hydrochloride hydrate] | 0.018 µg/mL | – |
| C=C[C@@]1(C)CC(=O)[C@@]2(O)[C@](C)(O1)[C@@H](OC(=O)CN1CCC(O)(c3ccccc3)CC1)C=C1C(C)(C)CC[C@H](O)[C@@]12C | 0.3 µg/mL (≈ 0.528 µM) | – |
| C=C[C@@]1(C)CC(=O)[C@@]2(O)[C@](C)(O1)[C@@H](OC(=O)COC(=O)CN1CCCCC1)C=C1C(C)(C)CC[C@H](O)[C@@]12C | 3 µg/mL (≈ 5.62 µM) | – |
| C=C[C@@]1(C)CC(=O)[C@@]2(O)[C@](C)(O1)[C@@H](OC(C)=O)C=C1C(C)(C)CC[C@H](O)[C@@]12C [COCH3] | 0.028 µg/mL (≈ 0.0713 µM) | – |
| C=C[C@@]1(C)CC(=O)[C@@]2(O)[C@](C)(O1)[C@@H](OC(=O)COC(=O)CN(C)C)C=C1C(C)(C)CC[C@H](O)[C@@]12C [COCH2 OCOCH2 NMe2, 1α,9α-Dihydroxy-7β-(N,N-dimethylaminoacetoxy)acetoxy-8,13-epoxy-labd-5,14-dien-11-one hydrochloride] | 0.8 µg/mL | – |
| C=C[C@@]1(C)CC(=O)[C@@]2(O)[C@](C)(O1)[C@@H](OC(=O)NC)C=C1C(C)(C)CC[C@H](O)[C@@]12C [CONHCH3] | 0.051 µg/mL (≈ 0.125 µM) | % decrease in IOD (conscious rabbits; dose percentage 1.00): 24.0%; Duration (decrease in IOD) (conscious rabbits; dose percentage 1.00): > 360 min |
| C=C[C@@]1(C)CC(=O)[C@@]2(O)[C@](C)(O1)[C@@H](OC(=O)N1CCN(C)CC1)C=C1C(C)(C)CC[C@H](O)[C@@]12C | 0.24 µg/mL (≈ 0.504 µM) | – |
| C=C[C@@]1(C)CC(=O)[C@@]2(O)[C@](C)(O1)[C@@H](OC(=O)[C@H](O)CO)C=C1C(C)(C)CC[C@H](O)[C@@]12C [drawing 82] | 0.0008 µg/mL (≈ 0.00182 µM) | – |
| C=C[C@@]1(C)CC(=O)[C@@]2(O)[C@](C)(O1)[C@@H](OC(=O)CCCN1CCN(C)CC1)C=C1C(C)(C)CC[C@H](O)[C@@]12C | 0.12 µg/mL (≈ 0.231 µM) | – |
| C=C[C@@]1(C)CC(=O)[C@@]2(O)[C@](C)(O1)[C@@H](OC(=O)COC=O)C=C1C(C)(C)CC[C@H](O)[C@@]12C [COCH2 OCHO, 1α,9α-dihydroxy-8,13-epoxy-7β-formyloxyacetoxylabda-5,14-dien-11-one] | 0.024 µg/mL (≈ 0.055 µM) | – |
| C=C[C@@]1(C)CC(=O)[C@@]2(O)[C@](C)(O1)[C@@H](OC(=O)CN1CCN(C)CC1)C=C1C(C)(C)CC[C@H](O)[C@@]12C [drawing 104] | – | % decrease in IOD (conscious rabbits; dose percentage 2.00): 23.9%; Duration (decrease in IOD) (conscious rabbits; dose percentage 2.00): 360 min |
| C=C[C@@]1(C)CC(=O)[C@@]2(O)[C@](C)(O1)[C@@H](OC(=O)CN1CCCCC1)C=C1C(C)(C)CC[C@H](O)[C@@]12C [drawing 107] | – | Decrease in BP (cats): 30 mm Hg; Duration (hypotensive activity) (cats): 90 min |
| C=C[C@@]1(C)CC(=O)[C@@]2(O)[C@](C)(O1)[C@@H](OC(N)=O)C=C1C(C)(C)CC[C@H](O)[C@@]12C [CONH2, 7β-Amino-carbonyloxy-1α,9α-dihydroxy-8,13-epoxy-labd-5,14-dien-11-one] | – | % decrease in IOD (conscious rabbits; dose percentage 1.00): 30.0%; Duration (decrease in IOD) (conscious rabbits; dose percentage 1.00): > 360 min |
| C=C[C@@]1(C)CC(=O)[C@@]2(O)[C@](C)(O1)[C@@H](OC(=O)N1CCOCC1)C=C1C(C)(C)CC[C@H](O)[C@@]12C [drawing 83] | 0.3 µg/mL (≈ 0.647 µM) | – |
| C=C[C@@]1(C)CC(=O)[C@@]2(O)[C@](C)(O1)[C@@H](OC(=O)CN1CCSCC1)C=C1C(C)(C)CC[C@H](O)[C@@]12C | 0.14 µg/mL (≈ 0.284 µM) | – |
| C=C[C@@]1(C)CC(=O)[C@@]2(O)[C@](C)(O1)[C@@H](OC(=O)CCCN(CC)CC)C=C1C(C)(C)CC[C@H](O)[C@@]12C [CO(CH2)3 NEt2, 1α,9α-Dihydroxy-7β-(4-diethylaminobutyryloxy)-8,13-epoxylabda-5,14-dien-11-one] | 0.037 µg/mL (≈ 0.0753 µM) | – |
| C=C[C@@]1(C)CC(=O)[C@@]2(O)[C@](C)(O1)[C@@H](OC(=O)CN1CCCC1)C=C1C(C)(C)CC[C@H](O)[C@@]12C | – | Decrease in BP (cats): 40 mm Hg; Duration (hypotensive activity) (cats): 90 min |

| Structure (SMILES) | EC50 (Guinea pig atrium) | other results |
| --- | --- | --- |
| C=C[C@@]1(C)CC(=O)[C@@]2(O)[C@](C)(O1)[C@@H](OC(=O)NCCCC)C=C1C(C)(C)CC[C@H](O)[C@@]12C [CONH(CH2)3 CH3] | – | % decrease in IOD (conscious rabbits; dose percentage 1.00): 27.0%; Duration (decrease in IOD) (conscious rabbits; dose percentage 1.00): > 360 min |
| C=C[C@@]1(C)CC(=O)[C@@]2(O)[C@](C)(O1)[C@@H](OC(=O)CN(CC)CC)C=C1C(C)(C)CC[C@H](O)[C@@]12C [COCH2 N(C2 H5)2, 7β-Diethylaminoacetoxy-1α,9α-dihydroxy-8,13-epoxy-labd-5,14-dien-11-one hydrochloride] | 0.72 µg/mL | Decrease in BP (cats): 36 mm Hg; Duration (hypotensive activity) (cats): > 60 min |
| C=C[C@@]1(C)CC(=O)[C@@]2(O)[C@](C)(O1)[C@@H](OC(=O)CN1CCN(C)CC1)C=C1C(C)(C)CC[C@H](O)[C@@]12C [drawing 108] | – | Decrease in BP (cats): 40 mm Hg; Duration (hypotensive activity) (cats): > 120 min |
| C=C[C@@]1(C)CC(=O)[C@@]2(O)[C@](C)(O1)[C@@H](OC(=O)COC(=O)CN1CCN(C)CC1)C=C1C(C)(C)CC[C@H](O)[C@@]12C | 0.44 µg/mL (≈ 0.802 µM) | – |
| C=C[C@@]1(C)CC(=O)[C@@]2(O)[C@](C)(O1)[C@@H](OC(=O)[C@H](O)CO)C=C1C(C)(C)CC[C@H](O)[C@@]12C [drawing 101] | – | % decrease in IOD (conscious rabbits; dose percentage 0.25): 35.0%; Duration (decrease in IOD) (conscious rabbits; dose percentage 0.25): > 360 min |
| C=C[C@@]1(C)CC(=O)[C@@]2(O)[C@](C)(O1)[C@@H](OC(=O)N1CCOCC1)C=C1C(C)(C)CC[C@H](O)[C@@]12C [drawing 106] | – | Decrease in BP (cats): 32 mm Hg; Duration (hypotensive activity) (cats): 45 min |
| C=C[C@@]1(C)CC(=O)[C@@]2(O)[C@](C)(O1)[C@@H](OC(=O)N1CCCC1)C=C1C(C)(C)CC[C@H](O)[C@@]12C | – | % decrease in IOD (conscious rabbits; dose percentage 1.00): 26.0%; Duration (decrease in IOD) (conscious rabbits; dose percentage 1.00): 240 min |
| C=C[C@@]1(C)CC(=O)[C@@]2(O)[C@](C)(O1)[C@@H](OC(=O)COC(=O)CN1CCOCC1)C=C1C(C)(C)CC[C@H](O)[C@@]12C | 1 µg/mL (≈ 1.87 µM) | – |
| C=C[C@@]1(C)CC(=O)[C@@]2(O)[C@](C)(O1)[C@@H](OC(=O)CCCCN1CCOCC1)C=C1C(C)(C)CC[C@H](O)[C@@]12C | 0.17 µg/mL (≈ 0.327 µM) | – |
| C=C[C@@]1(C)CC(=O)[C@@]2(O)[C@](C)(O1)[C@@H](OC(=O)CN1CCOCC1)C=C1C(C)(C)CC[C@H](O)[C@@]12C | – | % decrease in IOD (conscious rabbits; dose percentage 2.00): 20.3%; Duration (decrease in IOD) (conscious rabbits; dose percentage 2.00): 360 min |
| C=C[C@@]1(C)CC(=O)[C@@]2(O)[C@](C)(O1)[C@@H](OC(=O)CCCCN(C)C)C=C1C(C)(C)CC[C@H](O)[C@@]12C [CO(CH2)4 NMe2, 1α,9α-Dihydroxy-7β-(5-dimethylaminovaleryloxy)-8,13-epoxylabda-5,14-dien-11-one] | 0.755 µg/mL (≈ 1.58 µM) | Guinea pig atrium EC50 (Guinea pig atrium): 0.615 µg/mL |
| C=C[C@@]1(C)CC(=O)[C@@]2(O)[C@](C)(O1)[C@@H](OC(=O)CCN1CCCCC1)C=C1C(C)(C)CC[C@H](O)[C@@]12C | 0.28 µg/mL (≈ 0.572 µM) | – |
| C=C[C@@]1(C)CC(=O)[C@@]2(O)[C@](C)(O1)[C@@H](OC(=O)CCN1CCN(C)CC1)C=C1C(C)(C)CC[C@H](O)[C@@]12C | 0.3 µg/mL (≈ 0.594 µM) | – |
| C=C[C@@]1(C)CC(=O)[C@@]2(O)[C@](C)(O1)[C@@H](OC(=O)CCCN(C)C)C=C1C(C)(C)CC[C@H](O)[C@@]12C [CO(CH2)3 N(CH3)2, 1α,9α-Dihydroxy-7β-(4-N,N-dimethylaminobutyryloxy)8,13-epoxylabda-5,14-dien-11-one] | 0.058 µg/mL (≈ 0.125 µM) | – |
| C=C[C@@]1(C)CC(=O)[C@@]2(O)[C@](C)(O1)[C@@H](OC(=O)CN1CCCCC1)C=C1C(C)(C)CC[C@H](O)[C@@]12C [drawing 92] | 0.072 µg/mL (≈ 0.151 µM) | – |
| C=C[C@@]1(C)CC(=O)[C@@]2(O)[C@](C)(O1)[C@@H](OC(=O)CN1CC(C)OC(C)C1)C=C1C(C)(C)CC[C@H](O)[C@@]12C (some centres unmarked) | 0.079 µg/mL (≈ 0.156 µM) | – |
| C=C[C@@]1(C)CC(=O)[C@@]2(O)[C@](C)(O1)[C@@H](OC(=O)COC(=O)CN1CC(C)OC(C)C1)C=C1C(C)(C)CC[C@H](O)[C@@]12C (some centres unmarked) | 0.72 µg/mL (≈ 1.28 µM) | – |
